Measurements from paper PMC8493801, “Exploring the Monoterpene Indole Alkaloid Scaffold for Reversing P-Glycoprotein-Mediated Multidrug Resistance in Cancer” (Pharmaceuticals, 2021).
Like-named read-outs stand apart in the source and are kept apart here.

Key:
[1] = test system: mouse embryonic fibroblasts (NIH/3T3); assay: MTT antiproliferative assay, non-cancer cells; assay type: cell-based; conditions: for SI C/B (Selectivity Index): IC50 NIH/3T3 / IC50 MDR; for SI C/A (Selectivity Index): IC50 NIH/3T3 / IC50 PAR; for IC50: non-cancer mouse embryonic fibroblasts, MTT, read-out: IC50 NIH/3T3 (C)
Method: (§1) Non-cancer mouse embryonic fibroblasts (NIH/3T3) were also used.
In addition, the antiproliferative activity of the compounds was also evaluated on non-cancerous mouse embryonic fibroblast cells (NIH/3T3), whose values were compared with those of PAR and MDR cells by evaluation of the selective index (SI) values. […] The highest selective index values (SIC/A = 9.39; SIC/B = 10.79) were found for the derivative bearing the trimethoxyphenyl substituent (17).
(§2) L5178Y mouse T-lymphoma cells (ECACC catalog no. 87111908, US FDA, Silver Spring, MD, USA) were transfected with the pHa MDR1/A retrovirus as previously reported. The ABCB1 (P-gp) overexpressing cells were selected by culturing the infected cells with 60 ng/mL of colchicine (Sigma-Aldrich Chemie GmbH, Steinheim, Germany) to preserve the MDR phenotype. L5178Y (parental, PAR) mouse T-cell lymphoma cells and the human ABCB1-transfected subline were cultured in McCoy’s 5A supplemented with 10% heat-inactivated horse serum, 100 U/L L-glutamine, and 100 mg/L penicillin-streptomycin mixture, all obtained from Sigma-Aldrich. The mouse embryonic fibroblast (NIH 3T3) cell line was purchased from ATCC (CRL-1658) and was cultured in DMEM medium supplemented with 10% fetal bovine serum. These adherent cells were detached using 0.25% trypsin and 0.02% EDTA for 5 min at 37 °C. Before the antiproliferative assay using NIH 3T3 cell line, the cells were seeded in untreated 96-well flat bottomed microtiter plates, following a 4 h incubation period in a humidified atmosphere (5% CO2, 95% air) at 37 °C.

[2] = test system: human ABCB1-transfected L5178Y mouse lymphoma cells; assay: Checkerboard combination assay with doxorubicin; assay type: cell-based; design: key to CI at ED50 (combination index): CI <1 synergy, =1 additive, >1 antagonism; conditions: MDR cells; for CI at ED50 (combination index): best ratio
Method: The in vitro interactions between the compounds and the well-known antitumor drug and P-gp substrate, doxorubicin, were evaluated in a combination chemotherapy model on human ABCB1-transfected mouse T-lymphoma cells. The nature of drug–drug interactions was assessed by determination of the combination index (CI) using the Chou and Talalay method (Figure 1), and therefore evaluated as synergistic (CI < 1), additive (CI = 1), or antagonistic (CI > 1).
Doxorubicin (2 mg/mL, Teva Pharmaceuticals, Budapest, Hungary) was serially diluted horizontally in 100 µL as previously described, starting with 8.6 µM. The resistance modifier was subsequently diluted vertically in 50 µL; the starting concentration was determined based on the IC50. […] The checkerboard plates were kept for 72 h at 37 °C in a CO2 incubator, and at the end of the incubation period, the cell growth was determined by MTT staining method, as described earlier. Drug interactions were evaluated using Calcusyn software. Each dose–response curve (for individual agents as well as combinations) was fit to a linear model using the median effect equation in order to obtain the median effect value (corresponding to the IC50) and slope (m). The goodness-of-fit was assessed using the linear correlation coefficient, r, and only data from analysis with r > 0.90 were presented. The extent of interaction between drugs was expressed using the combination index, in which a CI value close to 1 indicates additivity, while a CI < 1 is defined as synergy and a CI > 1 as antagonism.

[3] = test system: sensitive L5178Y mouse T-lymphoma cells (PAR); assay: MTT antiproliferative assay, sensitive cells; assay type: cell-based; conditions: 72 h, mean ± SD
Method: as §1, §2
The assay was performed according to the previously applied experimental settings.

[4] = test system: human ABCB1-gene transfected L5178Y subline (MDR); conditions: for RR (relative resistance ratio) = IC50MDR/IC50PAR: RR ≤ 0.5 means CS effect

Structure (SMILES)	SI C/B (Selectivity Index) [1]	SI C/A (Selectivity Index) [1]	IC50 ([1]; NIH3T3)	Interaction [2]	CI at ED50 (combination index) [2]	IC50 [3]	IC50 [4]	RR (relative resistance ratio) = IC50MDR/IC50PAR [4]	IC50 [1]
CCCC=NN=C1CC2C(CC)CN(C)C(Cc3c1[nH]c1ccccc31)C2C(=O)OC (centres unmarked) [Compound 3, 3-[(butylidene)hydrazineylidene]dregamine]	>3.17	>1.88	> 100 µM	Synergism	0.305	53.1 ± 3.16 µM	31.5 ± 1.84 µM	0.59	–
CCC1CN(C)C2Cc3c([nH]c4ccccc34)C(=NN=Cc3c(O)ccc4ccccc34)CC1C2C(=O)OC (centres unmarked) [Compound 19, 3-[((2″-hydroxy-1″naphthalenyl)methylene)hydrazineylidene]dregamine]	1.35	1.35	17.5 ± 1.03 µM	Strong Synergism	0.222	12.9 ± 0.35 µM	12.9 ± 0.35 µM	1.00	–
CCC1CN(C)C2Cc3c([nH]c4ccccc34)C(=NNC(=O)NC(C)(C)C)CC1C2C(=O)OC (centres unmarked) [Compound 23]	>8.11	>3.81	> 100 µM	Strong Synergism	0.163	26.3 ± 0.5 µM	12.3 ± 1.8 µM	–	–
CCC1CN(C)C2Cc3c([nH]c4ccccc34)C(=NNC(=O)Nc3ccc(Cl)cc3)CC1C2C(=O)OC (centres unmarked) [Compound 28, 3-[2″-((4‴-chlorophenyl)carbamoyl)hydrazineylidene]dregamine]	2.45	2.06	12.8 ± 0.95 µM	Strong Synergism	0.158	6.22 ± 0.59 µM	5.21 ± 0.09 µM	0.84	–
CCCCCNC(=O)NN=C1CC2C(CC)CN(C)C(Cc3c1[nH]c1ccccc31)C2C(=O)OC (centres unmarked) [Compound 22]	6.24	4.92	26.7 ± 0.63 µM	Strong Synergism	0.219	5.43 ± 0.38 µM	4.28 ± 0.25 µM	0.79	–
CCC1CN(C)C2Cc3c([nH]c4ccccc34)C(=NN=Cc3cccc([N+](=O)[O-])c3)CC1C2C(=O)OC (centres unmarked) [Compound 6, 3-[(3″-nitrobenzylidene)hydrazineylidene]dregamine]	1.65	1.21	14.4 ± 1.36 µM	Strong Synergism	0.279	11.9 ± 1.09 µM	8.72 ± 0.52 µM	0.73	–
CCC1CN(C)C2Cc3c([nH]c4ccccc34)C(=NNC(=O)Nc3ccc(OC)cc3)CC1C2C(=O)OC (centres unmarked) [Compound 27, 3-[2″-((4‴-methoxyphenyl)carbamoyl)hydrazineylidene]dregamine]	6.32	5.84	40.2 ± 3.49 µM	Strong Synergism	0.225	6.88 ± 0.35 µM	6.37 ± 0.83 µM	0.92	–
CCC1CN(C)C2Cc3c([nH]c4ccccc34)C(=NN=Cc3ccc(C(F)(F)F)cc3)CC1C2C(=O)OC (centres unmarked) [Compound 10, 3-[(4″-(trifluoromethyl)benzylidene)hydrazineylidene]dregamine]	1.06	0.60	12.4 ± 1.58 µM	Strong Synergism	0.272	20.7 ± 0.8 µM	11.7 ± 0.67 µM	0.56	–
CCC1CN(C)C2Cc3c([nH]c4ccccc34)C(=NN=Cc3ccc(OC)cc3)CC1C2C(=O)OC (centres unmarked) [Compound 14, 3-[(4″-methoxybenzylidene)hydrazineylidene]dregamine]	2.28	1.09	19.7 ± 0.41 µM	Synergism	0.402	18.1 ± 2.69 µM	8.64 ± 0.67 µM	–	–
CCC1CN(C)C2Cc3c([nH]c4ccccc34)C(=NNC(=O)Nc3ccc(C(F)(F)F)cc3)CC1C2C(=O)OC (centres unmarked) [Compound 31, 3-[2″-((4‴-(trifluoromethyl)phenyl)carbamoyl)hydrazineylidene]dregamine]	1.03	0.96	6.7 ± 0.06 µM	Strong Synergism	0.296	6.97 ± 0.12 µM	6.48 ± 0.25 µM	0.93	–
CCC1CN(C)C2Cc3c([nH]c4ccccc34)C(=NN=Cc3ccccc3Br)CC1C2C(=O)OC (centres unmarked) [Compound 4, 3-[(2″-bromobenzylidene)hydrazineylidene]dregamine]	3.22	1.83	34.9 ± 5.63 µM	–	–	19.1 ± 0.76 µM	10.9 ± 1.34 µM	0.57	–
CCC1CN(C)C2Cc3c([nH]c4ccccc34)C(=NNC(=O)Nc3ccc([N+](=O)[O-])cc3)CC1C2C(=O)OC (centres unmarked) [Compound 30, 3-[2″-((4‴-nitrophenyl)carbamoyl)hydrazineylidene]dregamine]	2.90	2.32	14 ± 0.92 µM	Synergism	0.423	6.04 ± 0.36 µM	4.83 ± 0.05 µM	0.80	–
CCC1CN(C)C2Cc3c([nH]c4ccccc34)C(=NN=Cc3ccc(OCc4ccccc4)cc3)CC1C2C(=O)OC (centres unmarked) [Compound 16, 3-[(4″-(benzyloxy)benzylidene)hydrazineylidene]dregamine]	3.12	2.04	18.3 ± 1.3 µM	Synergism	0.34	8.93 ± 0.75 µM	5.86 ± 0.54 µM	0.66	–
CCC1CN(C)C2Cc3c([nH]c4ccccc34)C(=NN=Cc3ccc(Br)cc3)CC1C2C(=O)OC (centres unmarked) [Compound 8, 3-[(4″-bromobenzylidene)hydrazineylidene]dregamine]	1.56	1.32	11.7 ± 2.07 µM	Synergism	0.451	8.84 ± 0.76 µM	7.47 ± 0.17 µM	0.85	–
CCC1CN(C)C2Cc3c([nH]c4ccccc34)C(=NN=Cc3cccc(OC)c3)CC1C2C(=O)OC (centres unmarked) [Compound 7, 3-[(3″-methoxybenzylidene)hydrazineylidene]dregamine]	2.61	0.92	12.1 ± 1.4 µM	Strong Synergism	0.152	13.1 ± 0.74 µM	4.62 ± 0.14 µM	–	–
CCC1CN(C)C2Cc3c([nH]c4ccccc34)C(=NN=Cc3ccc(Cl)cc3)CC1C2C(=O)OC (centres unmarked) [Compound 9, 3-[(4″-chlorobenzylidene)hydrazineylidene]dregamine]	1.47	0.67	9.67 ± 0.94 µM	Strong Synergism	0.194	14.5 ± 0.84 µM	6.57 ± 0.12 µM	–	–
CC[C@H]1CN(C)[C@H]2Cc3c([nH]c4ccccc34)C(=O)C[C@H]1C2C(=O)OC (some centres unmarked) [Compound 1, Dregamine]	>4.35	>2.69	> 100 µM	–	0.756	37.2 ± 4.99 µM	23 ± 0.48 µM	0.62	–
N.N.[Cl][Pt][Cl] [Cisplatin, reference compound]	–	–	–	–	–	8.16 ± 1.7 µM	–	–	1.06 ± 0.02 µM
